The text below walks through data of paper PMC8071183 (International Journal of Molecular Sciences, 2021).

The subject of test [1] is GIRK channels. To be noted: haloperidol at 1 µM; cited from earlier work.
Test [2] deals with GIRK channels. As to the kind of experiment: Direct GIRK channel block by haloperidol. The test is classed as cell-based. To be noted: haloperidol at 3 µM; n = 4.
The next test has as its system D2R. To be noted: 1 µM haloperidol; 100 nM DA; cited from earlier work.
The target of test [3] is T1, D2R S193^5.42A (human dopamine D2S receptor mutant) (Homo sapiens, UniProt P14416, S193A). Description: cell-based. Conditions: for EC50: GIRK activation, perfusion 1 mL/min. The procedure: (§1) Following agonist application to Xenopus oocytes expressing D2R and GIRK1/4 subunits, Gβγ subunits released from activated Gi/o protein heterotrimers open the GIRK channels. […] Here, we used the GIRK current in oocytes voltage-clamped at −80 mV and superfused with a high-K^+ buffer (25 mM KCl) as a readout of agonist binding to D2R.
T1 sequence (P14416 1-414 isoform P14416-2 S193A): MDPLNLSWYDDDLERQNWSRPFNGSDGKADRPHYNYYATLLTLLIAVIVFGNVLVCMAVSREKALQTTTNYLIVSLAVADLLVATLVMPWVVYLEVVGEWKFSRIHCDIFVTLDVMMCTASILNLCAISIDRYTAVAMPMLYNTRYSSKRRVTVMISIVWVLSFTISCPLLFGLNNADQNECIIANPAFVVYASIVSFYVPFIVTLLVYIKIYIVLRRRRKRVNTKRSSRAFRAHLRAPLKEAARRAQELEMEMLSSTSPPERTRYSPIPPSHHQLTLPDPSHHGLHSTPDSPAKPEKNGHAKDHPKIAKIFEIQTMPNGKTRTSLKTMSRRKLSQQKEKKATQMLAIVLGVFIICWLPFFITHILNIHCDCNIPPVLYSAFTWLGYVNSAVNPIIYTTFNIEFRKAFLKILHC
(§2) Thus, increasing agonist concentrations were applied consecutively to voltage-clamped oocytes expressing WT D2R, RGS4, and GIRK1/4. […] A representative trace of currents measured during p-tyramine concentration–response data acquisition is shown in Supplementary Figure S1).
(§3) Injected cells were incubated for another 6 days at 12 °C in modified Barth’s solution (MBS), composed of (in mM): 88 NaCl, 1 KCl, 2.4 NaHCO3, 15 HEPES, 0.33 Ca(NO3)2, 0.41 CaCl2, 0.92 MgSO4, and 2.5 sodium pyruvate, supplemented with 25 U/mL penicillin and 25 µg/mL streptomycin and adjusted to pH 7.6 with NaOH. […] For each concentration of agonist, the relative current amplitude after 60 s (when a steady-state response had been achieved) of agonist perfusion was plotted to generate the concentration-response relationships. Oocytes were selected for electrophysiology recordings based on having holding currents at −40 mV of less than 0.5 µA. Likewise, recordings where holding currents at −40 mV were greater than 0.5 µA after data acquisition at −80 mV were discarded.
(§4) Agonist concentration–response relationships were analyzed by fitting sigmoidal functions using nonlinear regression in GraphPad Prism 8 (GraphPad Software, San Diego, CA, USA).

The target in test [4] is T2, WT D2R (human dopamine D2S receptor) (Homo sapiens, UniProt P14416). As to the kind of experiment: cell-based. The procedure: as §1, §2, §3, §4
T2 sequence (P14416 1-414 isoform P14416-2): as the sequence (P14416 1-414 isoform P14416-2 S193A) above, with A193S counted along it
A further test has as its system D2R S193^5.42A. Conditions: cited from earlier work.
The target of test [5] is T1, D2R S193^5.42A (human dopamine D2S receptor mutant). As to the kind of experiment: cell-based. Conditions: read-out: koff ± SEM.
Test [6] deals with T2, WT D2R (human dopamine D2S receptor). As to the kind of experiment: GIRK current activation rate (kobs) vs agonist concentration (kon estimate), WT D2R. The test is classed as cell-based. The procedure: (§5) A straight line was fitted to the data over the linear range of the relation between kobs and agonist concentration and the slope was taken as a measure of kon.
(§6) Experiments were performed using a perfusion rate of 4.5 mL/min. […] Note the logarithmic y-axis. […] Data are presented as mean ± SEM.
(§7) Association rate constant estimates were derived from recordings of GIRK current activation in response to applications of various agonist concentrations. Monoexponential functions were fit to cover 80% of the current increase in response to agonist using Levenberg–Marquardt least-squares fitting in Clampfit 10, outputting the activation time constant, τact. […] However, rather than using Equation (2), koff was calculated separately from the response decay time constant upon agonist washout, τdeact, as described above.

Test [7] shares this target. As to the kind of experiment: GIRK current deactivation following agonist washout (koff estimate), WT D2R. In kind it is cell-based. The procedure: We obtained such estimates of koff by analyzing the washout phase following short (13 s) applications of submaximally effective agonist concentrations (see legend of Figure 2) in oocytes co-expressing WT D2R with GIRK1/4 and RGS4.
Experiments were performed using a perfusion rate of 4.5 mL/min. Data are presented as mean ± SEM.
as §3

Test [8] concerns the target T1, D2R S193^5.42A (human dopamine D2S receptor mutant). As to the kind of experiment: cell-based. The procedure: as §5, §6, §7
Kinetic Kds were calculated as:Kd = koff/kon(3)

The term EC50 denotes the concentration at which the effect is half-maximal. Lower therefore signals greater potency. The koff is the first-order rate constant of dissociation. As usually defined, the Kd is the concentration at which binding is half-saturated. As usually defined, the kon is the rate constant with which the complex forms.

In the case of `O=C(CCCN1CCC(O)(c2ccc(Cl)cc2)CC1)c1ccc(F)cc1` [haloperidol], the GIRK channel block result with GIRK channels [1] is recorded as “negligible”. In addition, in the test on GIRK channels [2], the “direct GIRK current block” value worked out at 5.9 ± 0.2%. Further, the “block of the GIRK response to DA” value with D2R was “fully blocks”.

As for `NCCc1ccc(O)cc1` [p-tyramine], the EC50 is 47.9 µM in test [3] (EC50, S193^5.42A D2R); 47.9 µM in test [3] (pEC50 ± SEM, S193^5.42A D2R); 100 µM in test [4]. Moreover, the “Relative efficacy (fitted Top)” value in test [3] (S193^5.42A D2R, normalized to the response evoked by 300 µM DA) was 0.37 ± 0.01; in [4] (WT D2R, normalized to the response evoked by 1 µM DA), 0.09 ± 0.01. Further, the “fold increase of DA-normalized agonist efficacy at S193^5.42A” value in test [3] (S193^5.42A vs WT D2R) amounted to 4.1 fold. The “decrease of affinity by alanine mutation of S193^5.42” value in the test with D2R S193^5.42A is “less than twofold”. The koff in [5] is 0.112 ± 0.008 s⁻¹; in [7] it was 0.123 ± 0.008 s⁻¹. Further, the dissociation constant Kd in test [6] (Kd = koff/kon, read-out: pKd ± SEM (kinetic Kd) (converted)) was 24.5 µM; in [8], 11.7 µM. The kon in [6] (slope of linear fit of kobs vs agonist concentration, perfusion 4.5 mL/min) was 4940 ± 1.15e+06 M⁻¹ s⁻¹; in [8] (read-out: kon ± SEM), 9410 ± 2.34e+06 M⁻¹ s⁻¹.
